Holding throughout (type): biochemical
The target of experiment [1] is SIK3 (Homo sapiens, UniProt Q9Y2K2). Put plainly: Enzymatic activity assay SIK3, RapidFire mass spectrometry (phosphorylation of CHK-peptide). The note with it: RapidFire MS, inhibition of SIK3; read-out: SIK3 RF IC50. The gist of the method: (§1)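 Compounds (12-point, 3-fold, generally 30 μM to 170 pM) were pre-incubated 30 min at ambient temperature with SIK1 (5 nM), SIK2 (0.5 nM) or SIK3 (1.5 nM) in HEPES pH 7.0/magnesium acetate buffer. CHK-peptide (10 μM solution) and ATP (100 μM solution) were then added for 45 min before formic acid quench.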

Experiment [2] concerns the target SIK2 (Homo sapiens, UniProt Q9H0K1). Put plainly: Enzymatic activity assay SIK2, RapidFire mass spectrometry (phosphorylation of CHK-peptide). The note with it: RapidFire MS, inhibition of SIK2; read-out: SIK2 RF IC50. The gist of the method: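 SIK2 (0.5 nM) in pH 7.0 HEPES buffer with 10 mM Mg acetate phosphorylates CHK-peptide (10 μM solution) with 100 μM ATP solution, 45 min ambient, then formic acid quench.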

For experiment [3], the target named is SIK1 (Homo sapiens, UniProt P57059). Put plainly: Enzymatic activity assay SIK1, RapidFire mass spectrometry (phosphorylation of CHK-peptide). The note with it: RapidFire MS, inhibition of SIK1; read-out: SIK1 RF IC50. The gist of the method:
as §1

Chain of SIK1 (P57059 whole entry): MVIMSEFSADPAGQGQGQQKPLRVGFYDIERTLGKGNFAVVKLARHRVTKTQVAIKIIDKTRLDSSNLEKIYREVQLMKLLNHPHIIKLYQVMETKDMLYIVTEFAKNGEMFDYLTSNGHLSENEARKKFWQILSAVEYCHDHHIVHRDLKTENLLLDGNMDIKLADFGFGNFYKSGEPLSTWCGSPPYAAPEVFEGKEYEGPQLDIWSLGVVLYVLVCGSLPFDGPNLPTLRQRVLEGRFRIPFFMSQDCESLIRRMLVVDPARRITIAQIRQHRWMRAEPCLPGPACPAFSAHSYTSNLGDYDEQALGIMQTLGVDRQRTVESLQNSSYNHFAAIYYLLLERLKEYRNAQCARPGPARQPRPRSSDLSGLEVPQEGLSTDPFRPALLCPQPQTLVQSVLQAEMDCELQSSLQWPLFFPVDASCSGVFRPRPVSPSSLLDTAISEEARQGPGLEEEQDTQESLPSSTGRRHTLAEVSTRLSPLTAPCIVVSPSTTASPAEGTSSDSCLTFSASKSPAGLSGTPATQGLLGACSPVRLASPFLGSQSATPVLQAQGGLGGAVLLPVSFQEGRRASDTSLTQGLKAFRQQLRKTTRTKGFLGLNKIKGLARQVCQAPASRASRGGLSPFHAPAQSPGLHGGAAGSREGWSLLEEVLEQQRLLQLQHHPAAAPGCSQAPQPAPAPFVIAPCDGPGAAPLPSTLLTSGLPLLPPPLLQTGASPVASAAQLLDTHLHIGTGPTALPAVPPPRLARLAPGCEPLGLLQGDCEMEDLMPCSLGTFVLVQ
Chain of SIK2 (Q9H0K1 whole entry): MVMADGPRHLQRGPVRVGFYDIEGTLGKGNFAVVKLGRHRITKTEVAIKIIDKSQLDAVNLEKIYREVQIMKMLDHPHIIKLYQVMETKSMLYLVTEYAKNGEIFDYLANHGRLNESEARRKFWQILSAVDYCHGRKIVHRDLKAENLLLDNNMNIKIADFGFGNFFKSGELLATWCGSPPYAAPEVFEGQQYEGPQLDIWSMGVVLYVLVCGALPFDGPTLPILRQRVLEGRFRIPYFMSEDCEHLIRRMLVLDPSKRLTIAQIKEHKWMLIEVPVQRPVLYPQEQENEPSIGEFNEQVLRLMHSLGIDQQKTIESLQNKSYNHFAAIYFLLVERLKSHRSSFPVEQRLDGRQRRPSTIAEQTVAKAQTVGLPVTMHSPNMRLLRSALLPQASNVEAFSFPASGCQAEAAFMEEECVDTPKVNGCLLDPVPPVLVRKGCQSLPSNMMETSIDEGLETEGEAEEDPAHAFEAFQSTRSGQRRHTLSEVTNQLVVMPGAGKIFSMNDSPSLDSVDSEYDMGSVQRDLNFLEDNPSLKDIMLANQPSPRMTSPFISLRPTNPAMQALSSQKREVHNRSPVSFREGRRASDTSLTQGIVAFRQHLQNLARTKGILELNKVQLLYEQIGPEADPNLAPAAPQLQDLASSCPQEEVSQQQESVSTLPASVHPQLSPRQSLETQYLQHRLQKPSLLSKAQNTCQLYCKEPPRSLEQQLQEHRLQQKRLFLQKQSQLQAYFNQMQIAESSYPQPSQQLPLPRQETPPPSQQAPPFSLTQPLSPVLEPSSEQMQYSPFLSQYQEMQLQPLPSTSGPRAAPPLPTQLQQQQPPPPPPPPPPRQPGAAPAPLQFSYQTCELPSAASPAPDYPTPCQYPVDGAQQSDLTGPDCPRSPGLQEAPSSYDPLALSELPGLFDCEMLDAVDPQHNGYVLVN
Chain of SIK3 (Q9Y2K2 whole entry): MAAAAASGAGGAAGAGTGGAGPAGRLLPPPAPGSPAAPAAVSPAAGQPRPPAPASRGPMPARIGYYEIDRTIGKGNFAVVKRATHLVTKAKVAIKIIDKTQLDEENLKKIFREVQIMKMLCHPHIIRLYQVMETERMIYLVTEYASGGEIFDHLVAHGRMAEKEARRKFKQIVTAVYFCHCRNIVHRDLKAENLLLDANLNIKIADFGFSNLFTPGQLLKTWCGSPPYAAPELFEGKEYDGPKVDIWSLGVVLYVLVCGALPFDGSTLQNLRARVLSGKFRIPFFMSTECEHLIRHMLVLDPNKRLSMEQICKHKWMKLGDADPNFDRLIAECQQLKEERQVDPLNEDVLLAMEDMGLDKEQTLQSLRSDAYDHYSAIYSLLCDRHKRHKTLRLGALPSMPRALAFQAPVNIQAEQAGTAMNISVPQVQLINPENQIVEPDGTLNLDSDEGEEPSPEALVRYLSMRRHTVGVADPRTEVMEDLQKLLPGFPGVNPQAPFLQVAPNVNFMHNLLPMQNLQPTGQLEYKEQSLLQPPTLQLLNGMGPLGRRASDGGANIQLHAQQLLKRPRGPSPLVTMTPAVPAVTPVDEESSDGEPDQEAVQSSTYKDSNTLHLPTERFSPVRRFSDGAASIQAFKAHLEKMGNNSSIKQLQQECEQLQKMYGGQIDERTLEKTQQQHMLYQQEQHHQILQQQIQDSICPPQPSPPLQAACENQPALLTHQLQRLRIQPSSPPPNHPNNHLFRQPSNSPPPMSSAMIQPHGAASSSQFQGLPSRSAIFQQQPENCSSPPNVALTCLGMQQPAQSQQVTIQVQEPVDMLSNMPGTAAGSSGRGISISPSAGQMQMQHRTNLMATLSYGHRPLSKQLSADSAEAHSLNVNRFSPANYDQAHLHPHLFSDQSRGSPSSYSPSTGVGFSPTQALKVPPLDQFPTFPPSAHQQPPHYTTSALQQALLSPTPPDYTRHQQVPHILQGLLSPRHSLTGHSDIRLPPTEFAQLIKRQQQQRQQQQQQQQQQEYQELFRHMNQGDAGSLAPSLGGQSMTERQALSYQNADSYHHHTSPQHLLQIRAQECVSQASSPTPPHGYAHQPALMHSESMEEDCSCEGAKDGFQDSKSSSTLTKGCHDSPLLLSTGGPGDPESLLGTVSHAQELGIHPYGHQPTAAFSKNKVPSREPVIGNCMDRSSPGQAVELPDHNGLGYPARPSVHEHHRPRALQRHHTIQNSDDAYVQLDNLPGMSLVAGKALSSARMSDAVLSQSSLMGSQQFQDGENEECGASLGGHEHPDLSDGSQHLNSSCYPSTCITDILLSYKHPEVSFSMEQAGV

What is called IC50 is the concentration that inhibits the measured activity by half. With `Cc1cc(C#N)nn1-c1nc(-n2cnc3cc(Nc4cccnn4)ccc32)ccc1C(C)O` (stereo not drawn) [Example 89, 1-[3-(1-Hydroxyethyl)-6-[5-(pyridazin-3-ylamino)benzimidazol-1-yl]-2-pyridyl]-5-methyl-pyrazole-3-carbonitrile], the IC50 in experiment [1] worked out at 0.7 nM; in experiment [2] it was 1.2 nM; in experiment [3], 95 nM.
For `Cc1nnc(Nc2cc3c(cc2F)ncn3-c2ccc(C(C)O)c(-n3nc(C#N)cc3C)n2)o1` (stereo not drawn) [Example 376, 1-[6-[5-fluoro-6-[(5-methyl-1,3,4-oxadiazol-2-yl)amino]benzimidazol-1-yl]-3-(1-hydroxyethyl)-2-pyridyl]-5-methyl-pyrazole-3-carbonitrile], the IC50 in experiment [1] was 42 nM; in experiment [2], 9.6 nM; in experiment [3] it was 14 nM.
For the compound `Cc1ccc(Nc2ccc3c(c2)ncn3-c2ccc(C(C)O)c(N3CCCS3(=O)=O)n2)nn1` (stereo not drawn) [Example 85, 1-[2-(1,1-dioxo-1,2-thiazolidin-2-yl)-6-[5-[(6-methylpyridazin-3-yl)amino]benzimidazol-1-yl]-3-pyridyl]ethanol], the half-inhibitory concentration (IC50) is 1910 nM in experiment [1], 818 nM in experiment [2] and 1070 nM in experiment [3].
As for `Cc1ccc(Nc2ccc3c(c2)ncn3-c2ccc(C(C)O)c(-n3nc(C)cc3C(F)F)n2)nn1` (stereo not drawn) [Example 231, 1-[2-[5-(difluoromethyl)-3-methyl-pyrazol-1-yl]-6-[5-[(6-methylpyridazin-3-yl)amino]benzimidazol-1-yl]-3-pyridyl]ethanol], the figures for the IC50 in experiment [1], in experiment [2] and in experiment [3] were 2 nM, 12.9 nM and 1050 nM, respectively.
With `Cc1ccc(Nc2ccc3c(c2)ncn3-c2ccc(C(C)O)c(-n3nc(C(F)F)nc3C)n2)nn1` (stereo not drawn) [Example 344, 1-[2-[3-(difluoromethyl)-5-methyl-1,2,4-triazol-1-yl]-6-[5-[(6-methylpyridazin-3-yl)amino]benzimidazol-1-yl]-3-pyridyl]ethanol], the half-inhibitory concentration (IC50) in experiment [1] was found to be 3.2 nM; in experiment [2], 20.2 nM; in experiment [3] it was 1570 nM.
For `Cc1cc(C#N)nn1-c1nc(-n2cnc3ccc(CN4CCCC4=O)cc32)ccc1C(C)O` (stereo not drawn) [Example 212, 1-[3-(1-Hydroxyethyl)-6-[6-[(2-oxopyrrolidin-1-yl)methyl]benzimidazol-1-yl]-2-pyridyl]-5-methyl-pyrazole-3-carbonitrile], in that order: 1580 nM, 292 nM and 453 nM.
For `Cc1cc(C#N)nn1-c1nc(-n2cnc3cc(Nc4ccc(OC5COC5)nn4)ccc32)ccc1C(C)O` (stereo not drawn) [Example 207, 1-[3-(1-Hydroxyethyl)-6-[5-[[6-(oxetan-3-yloxy)pyridazin-3-yl]amino]benzimidazol-1-yl]-2-pyridyl]-5-methyl-pyrazole-3-carbonitrile], in that order: 2.6 nM, 3.7 nM and 27 nM.
With `Cc1ccc(Nc2ccc3c(c2)ncn3-c2ccc(C(C)O)c(-n3cc(C#N)c(C)n3)n2)nn1` (stereo not drawn) [Example 182, 1-[3-(1-Hydroxyethyl)-6-[5-[(6-methylpyridazin-3-yl)amino]benzimidazol-1-yl]-2-pyridyl]-3-methyl-pyrazole-4-carbonitrile], the IC50 in experiment [1] came to 25.7 nM; in experiment [2], 88.9 nM; in experiment [3], 15400 nM.
Take `Cc1ccc(Nc2cc3ncn(-c4ccc(C(C)O)c(-n5nc(C#N)cc5C)n4)c3cc2OC2COC2)nn1` (stereo not drawn) [Example 282, 1-[3-(1-hydroxyethyl)-6-[5-[(6-methylpyridazin-3-yl)amino]-6-(oxetan-3-yloxy)benzimidazol-1-yl]-2-pyridyl]-5-methyl-pyrazole-3-carbonitrile]: the IC50 was found to be 0.8 nM in experiment [1], 0.4 nM in experiment [2] and 7 nM in experiment [3].
For `Cc1ccc(Nc2cc3ncn(-c4ccc([C@H](C)O)c(-n5nc(OC(F)F)cc5C)n4)c3cc2OC2COC2)nn1` [Example 383, (1S)-1-[2-[3-(difluoromethoxy)-5-methyl-pyrazol-1-yl]-6-[5-[(6-methylpyridazin-3-yl)amino]-6-(oxetan-3-yloxy)benzimidazol-1-yl]-3-pyridyl]ethanol], in that order: 0.5 nM, 0.2 nM and 5 nM.
With `COc1cc2ncn(-c3ccc([C@H](C)O)c(-c4ccn(C)c(=O)c4)n3)c2cc1OC` [Example 41, (S)-6-(5,6-Dimethoxy-1H-benzo[d]imidazol-1-yl)-3-(1-hydroxyethyl)-1′-methyl-[2,4′-bipyridin]-2′(1′H)-one], the concentration for half-maximal inhibition (IC50) came out at 300 nM in experiment [1], 91.7 nM in experiment [2] and 197 nM in experiment [3].
As for `Cc1ncc(Nc2ccc3c(c2)ncn3-c2ccc(C(C)O)c(-n3nc(C#N)cc3C)n2)cn1` (stereo not drawn) [Example 86, 1-[3-(1-Hydroxyethyl)-6-[5-[(2-methylpyrimidin-5-yl)amino]benzimidazol-1-yl]-2-pyridyl]-5-methyl-pyrazole-3-carbonitrile], the IC50 in experiment [1] was found to be 1.5 nM; in experiment [2] it was 6 nM; in experiment [3] it was 62 nM.
As for `Cc1ccc(Nc2ccc3c(c2)ncn3-c2ccc(C(C)O)c(-c3cn(CC(F)CF)nc3C)n2)nn1` (stereo not drawn) [Example 399, 1-[2-[1-(2,3-difluoropropyl)-3-methyl-pyrazol-4-yl]-6-[5-[(6-methylpyridazin-3-yl)amino]benzimidazol-1-yl]-3-pyridyl]ethanol], the 50% inhibitory concentration (IC50) is 1 nM in experiment [1], 0.6 nM in experiment [2] and 39 nM in experiment [3].
`Cc1ccc(Nc2ccc3c(c2)ncn3-c2ccc(C(O)C(F)(F)F)c(-n3nc(C#N)cc3C)n2)nn1` (stereo not drawn) [Example 148, 5-Methyl-1-[6-[5-[(6-methylpyridazin-3-yl)amino]benzimidazol-1-yl]-3-(2,2,2-trifluoro-1-hydroxy-ethyl)-2-pyridyl]pyrazole-3-carbonitrile]: the IC50 was 1.2 nM in experiment [1], 10.3 nM in experiment [2] and 663 nM in experiment [3].
On to `Cc1ccc(Nc2ccc3ncn(-c4ccc([C@@H](C)O)c(-n5nc(C#N)cc5C)n4)c3c2)nn1` [Example 247, 1-[3-[(1R)-1-hydroxyethyl]-6-[6-[(6-methylpyridazin-3-yl)amino]benzimidazol-1-yl]-2-pyridyl]-5-methyl-pyrazole-3-carbonitrile], for which the half-inhibitory concentration (IC50) is 46.1 nM in experiment [1], 174 nM in experiment [2] and 1440 nM in experiment [3].
Consider `Cc1ccc(Nc2ccc3c(c2)ncn3-c2ccc(C(C)O)c(NCC3(C#N)CC3)n2)nn1` (stereo not drawn) [Example 116, 1-[[[3-(1-Hydroxyethyl)-6-[5-[(6-methylpyridazin-3-yl)amino]benzimidazol-1-yl]-2-pyridyl]amino]methyl]cyclopropanecarbonitrile; formic acid], for which the results for the 50% inhibitory concentration (IC50) in experiment [1], in experiment [2] and in experiment [3] were 9.6 nM, 47.1 nM and 1620 nM, respectively.
`COCC(O)c1ccc(-n2cnc3ccc(Nc4ccc(C)nn4)cc32)nc1-n1nc(C#N)cc1C` (stereo not drawn) [Example 235, 1-[3-(1-Hydroxy-2-methoxy-ethyl)-6-[6-[(6-methylpyridazin-3-yl)amino]benzimidazol-1-yl]-2-pyridyl]-5-methyl-pyrazole-3-carbonitrile]: the half-maximal inhibitory concentration (IC50) worked out at 201 nM in experiment [1], 245 nM in experiment [2] and 647 nM in experiment [3].
For `Cc1ccc(Nc2ccc3c(c2)ncn3-c2ccc(C(C)O)c(-n3nc(C)cc3C#N)n2)nn1` (stereo not drawn) [Example 104, 2-[3-(1-Hydroxyethyl)-6-[5-[(6-methylpyridazin-3-yl)amino]benzimidazol-1-yl]-2-pyridyl]-5-methyl-pyrazole-3-carbonitrile], in that order: 2.6 nM, 10.4 nM and 616 nM.
For `Cc1cc(C#N)nn1-c1nc(-n2cnc3cc(-c4ccc5c(n4)C(=O)N(C)C5)ccc32)ccc1C(C)O` (stereo not drawn) [Example 366, 1-[3-(1-hydroxyethyl)-6-[5-(6-methyl-7-oxo-5H-pyrrolo[3,4-b]pyridin-2-yl)benzimidazol-1-yl]-2-pyridyl]-5-methyl-pyrazole-3-carbonitrile], in that order: 23.3 nM, 58.2 nM and 133 nM.
As for `COc1cc(Cl)nnc1Nc1ccc2c(c1)ncn2-c1ccc(C(C)O)c(-n2nc(C#N)cc2C)n1` (stereo not drawn) [Example 241, 1-[6-[5-[(6-Chloro-4-methoxy-pyridazin-3-yl)amino]benzimidazol-1-yl]-3-(1-hydroxyethyl)-2-pyridyl]-5-methyl-pyrazole-3-carbonitrile], the IC50 in experiment [1] came to 0.9 nM; in experiment [2] it was 1.8 nM; in experiment [3], 173 nM.
Consider `Cc1cc(C(F)F)nn1-c1nc(-n2cnc3cc(F)c(Nc4ccc(F)c(F)c4F)cc32)ccc1C(C)O` (stereo not drawn) [Example 364, 1-[2-[3-(difluoromethyl)-5-methyl-pyrazol-1-yl]-6-[5-fluoro-6-(2,3,4-trifluoroanilino)benzimidazol-1-yl]-3-pyridyl]ethanol], for which the IC50 in experiment [1] was found to be 11.7 nM; in experiment [2] it was 2.9 nM; in experiment [3] it was 8 nM.
On to `Cc1ccc(Nc2ccc3ncn(-c4ccc(C(C)O)c(-n5nc(C(F)F)cc5C)n4)c3c2)nn1` (stereo not drawn) [Example 128, 1-[2-[3-(Difluoromethyl)-5-methyl-pyrazol-1-yl]-6-[6-[(6-methylpyridazin-3-yl)amino]benzimidazol-1-yl]-3-pyridyl]ethanol], for which the figures for the half-maximal inhibitory concentration (IC50) in experiment [1], in experiment [2] and in experiment [3] were 155 nM, 89.5 nM and 193 nM, respectively.
